The test has as its system Plasmodium berghei. The experiment in a line: Luciferase/luciferin-expressing antifolate-resistant parasites were used to infect a culture of HepG2 cells that were pre-incubated with compounds. Infected hepatocytes emit light due to the luciferase reaction. Assay results are presented as the percent inhibition of light emission compared to control. […]. It is filed as functional. The note with it: sporozoite; for IC90: read-out: LUCIFERASE INFECTION ASSAY - IC90.

The mark [1] stands for this setting: read-out: LUCIFERASE INFECTION ASSAY - IC50.

Bounds are passed on as bounds.

For orientation: IC50 means the point on the concentration scale where inhibition reaches its midpoint. A word on the IC90: it is the concentration at which the effect reaches the 90% level.

For the molecule `Cc1cc(-c2cnc(N)c(-c3cccc(C(F)(F)F)c3)c2)cc(C)c1O`, the IC90 worked out at 4.83 µM. Also, under “HEPG2TOX_HILL_SLOPE 1.44, HEPG2TOX_R_SQUARED 0.945, PBLUC_HILL_SLOPE 1.93, PBLUC_R_SQUARED 0.583, read-out: LUCIFERASE INFECTION ASSAY - IC50”, the IC50 was found to be 1.55 µM.

Regarding `Cc1nn2c(NCCN(C)C)cc(C(C)C)nc2c1-c1ccccc1`, the IC90 was greater than 9.78 µM. In addition, under setting [1], the IC50 was greater than 9.78 µM.

`COc1ccc(C2CC(C)=NN2c2nc(-c3ccc(F)cc3)cs2)cc1OC` (configuration not stated): the 90% effect concentration (IC90) is greater than 8.3 µM. In addition, where the note is “PBLUC_HILL_SLOPE 2.46, PBLUC_R_SQUARED 0.655, read-out: LUCIFERASE INFECTION ASSAY - IC50”, the IC50 worked out at 4.62 µM.

Take `CC(C)Oc1cccc(-c2cn3c(-c4ccccc4Cl)cnc3cn2)c1`: the 90% effect concentration (IC90) was greater than 9.07 µM. The IC50 under setting [1] is greater than 9.07 µM.

`Cc1ccc(S(=O)(=O)c2nc(/C=C3\N(C)c4ccccc4C3(C)C)sc2Cl)cc1`: the IC90 was greater than 10 µM. The IC50 (FFLUC_HILL_SLOPE 1.82, FFLUC_R_SQUARED 0.745, read-out: LUCIFERASE INFECTION ASSAY - IC50) is greater than 10 µM.

For `COc1ccc(OC)c(-c2csc(NC(=O)c3[nH]c(C)c(C(C)=O)c3C)n2)c1`, the IC90 is greater than 10 µM. Where the note is “PBLUC_HILL_SLOPE 2.64, PBLUC_R_SQUARED 0.217, read-out: LUCIFERASE INFECTION ASSAY - IC50”, the IC50 worked out at 5.92 µM.

As for `CCOC(=O)C1=C(CN2CCN(C(c3ccc(F)cc3)c3ccc(F)cc3)CC2)NC(=O)NC1CC` (configuration not stated), the IC90 is greater than 10 µM. The IC50 under setting [1] is greater than 10 µM.

On to `O=C(C(Sc1nc2cc(S(=O)(=O)N3CCCCC3)ccc2o1)c1ccccc1)N1CCCCC1` (configuration not stated), for which the IC90 is greater than 10 µM. In addition, the IC50 (HEPG2TOX_HILL_SLOPE 0.777, HEPG2TOX_R_SQUARED 0.137, read-out: LUCIFERASE INFECTION ASSAY - IC50) is greater than 10 µM.

In the case of `COc1ccc2cc(CNc3ncnc4n[nH]cc34)ccc2c1`, the IC90 stood at 4.29 µM. Also, the IC50 (HEPG2TOX_HILL_SLOPE 1.04, HEPG2TOX_R_SQUARED 0.97, PBLUC_HILL_SLOPE 1.64, PBLUC_R_SQUARED 0.72, read-out: LUCIFERASE INFECTION ASSAY - IC50) stood at 1.13 µM.

As to `COc1ccccc1NC(=S)NC(c1ccccc1)c1ccccc1`, the 90% effect concentration (IC90) is greater than 9.47 µM. Also, under setting [1], the IC50 is greater than 9.47 µM.

For `CCOC(=O)c1c[nH]nc1S(=O)(=O)Nc1ccc[nH]c1=O`, the IC90 is greater than 10 µM. For the same molecule, under setting [1], the IC50 is greater than 10 µM.

Regarding `O=[N+]([O-])c1ccc(NC2CCN(Cc3ccccc3)CC2)c2ccncc12`, the IC90 is greater than 10 µM. The half-inhibitory concentration (IC50) under setting [1] turned out to be 9.37 µM.

For `NC(=O)N1CC=C(c2ccc(Oc3ncnc4sccc34)cc2)CC1`, the IC90 was greater than 2 µM. Moreover, under setting [1], the IC50 was greater than 2 µM.

As for `COc1ccc(Sc2nc(N(C)C)ncc2OC)cc1`, the IC90 was greater than 11.3 µM. Also, the IC50 (HEPG2TOX_HILL_SLOPE 2.8, HEPG2TOX_R_SQUARED 0.967, PBLUC_HILL_SLOPE 2.43, PBLUC_R_SQUARED 0.609, read-out: LUCIFERASE INFECTION ASSAY - IC50) worked out at 6.22 µM.

Regarding `CN(C)CCNc1nc(-c2ccco2)c2c(c1C#N)CCCC2`, the IC90 is greater than 10.6 µM. The IC50 (HEPG2TOX_HILL_SLOPE 3.21, HEPG2TOX_R_SQUARED 0.873, PBLUC_HILL_SLOPE 1.18, PBLUC_R_SQUARED 0.659, read-out: LUCIFERASE INFECTION ASSAY - IC50) stood at 3.31 µM.

Consider `Cc1ccc(S(=O)(=O)Nc2ccc(C(=O)/C=C/c3ccc(C(C)(C)C)cc3)cc2)cc1`, for which the 90% effect concentration (IC90) was greater than 10 µM. For the same molecule, under setting [1], the IC50 is greater than 10 µM.

For `CCOc1cc(C(=O)NCCNC(=O)C(C)C)cc(OCC)c1OCC`, the IC90 was greater than 10 µM. In addition, under setting [1], the IC50 is greater than 10 µM.

With `CCNC(=O)N1CCc2nc(Nc3cc(Cl)cc(Cl)c3)ncc2C1`, the IC90 is greater than 9.01 µM. The IC50 under setting [1] was greater than 9.01 µM.

Turning to `COc1cc(OC)c(NC(=O)c2cc3ccccc3cc2OCC(=O)NC(C)c2ccccc2)cc1Cl` (configuration not stated), the IC90 is greater than 10 µM. The IC50 under setting [1] was greater than 10 µM.

Take `C/C=C/C=C/C(=O)Nc1ccc(Nc2ccccc2)cc1`: the IC90 amounted to 5.63 µM. Also, the half-maximal inhibitory concentration (IC50) (HEPG2TOX_HILL_SLOPE 12.3, HEPG2TOX_R_SQUARED 0.699, PBLUC_HILL_SLOPE 454, 10.1, PBLUC_R_SQUARED 0.588, 0.566, read-out: LUCIFERASE INFECTION ASSAY - IC50) came out at 5.17 µM.

Regarding `COc1cc(/C=N/NC(=O)c2cc(C)n(-c3ccccc3)c2C)ccc1OCC(=O)Nc1c(C)cc(C)cc1C`, the IC90 turned out to be 8.35 µM. Also, the IC50 (HEPG2TOX_HILL_SLOPE 0.635, HEPG2TOX_R_SQUARED 0.731, PBLUC_HILL_SLOPE 5.43, PBLUC_R_SQUARED 0.0161, read-out: LUCIFERASE INFECTION ASSAY - IC50) turned out to be 5.57 µM.

Consider `Cc1ccc(C(C)C)cc1OCc1nnc2n(C)c(=O)c3ccccc3n12`, for which the concentration for an effect of 90% (IC90) was greater than 10 µM. Besides, under setting [1], the IC50 is greater than 10 µM.

For the molecule `C/N=c1\scc(-c2ccc(OC(F)F)cc2)n1/N=C/c1ccccc1[N+](=O)[O-]`, the IC90 was greater than 10 µM. Besides, under setting [1], the IC50 is greater than 10 µM.

Take `Cc1ccccc1/C=N/NC(N)=S`: the IC90 is greater than 17.1 µM. Moreover, the IC50 (HEPG2TOX_HILL_SLOPE 1.52, HEPG2TOX_R_SQUARED 0.966, read-out: LUCIFERASE INFECTION ASSAY - IC50) was greater than 17.1 µM.

With `C/C(N)=C(/C#N)C(=O)COC(=O)c1cc(-c2cccc3ccccc23)nc2ccccc12`, the concentration for an effect of 90% (IC90) is greater than 10 µM. Under setting [1], the IC50 was greater than 10 µM.

Consider `CCOC(=O)c1c(-c2cccs2)csc1NC(=O)c1c(S)n(-c2ccccc2C)c2ccc(C)c[n+]12`, for which the IC90 is greater than 10 µM. In addition, the IC50 (FFLUC_HILL_SLOPE 11.9, FFLUC_R_SQUARED 0.481, read-out: LUCIFERASE INFECTION ASSAY - IC50) was greater than 10 µM.

Take `CC(C)(C)c1cc(C(=O)/C(C#N)=N/Nc2ccc(Cl)cc2)no1`: the IC90 came to 4.32 µM. Besides, for the setting “HEPG2TOX_HILL_SLOPE 1.26, HEPG2TOX_R_SQUARED 0.947, PBLUC_HILL_SLOPE 9.91, PBLUC_R_SQUARED 0.6, read-out: LUCIFERASE INFECTION ASSAY - IC50”, the IC50 came to 3.46 µM.

For the molecule `COc1ccccc1NCC(=O)N/N=C1/C(=O)Nc2ccc(C(C)C)cc21`, the IC90 is greater than 10 µM. For the same molecule, the IC50 under setting [1] is greater than 10 µM.

On to `O=C(c1cn2ccccc2n1)N1CCN(C(c2ccccc2)c2ccccc2)CC1`, for which the 90% effect concentration (IC90) is greater than 10 µM. Further, the IC50 (PBLUC_HILL_SLOPE 4.26, PBLUC_R_SQUARED 0.0991, read-out: LUCIFERASE INFECTION ASSAY - IC50) is 6.51 µM.

Turning to `O=C1CC(c2c(F)cccc2Cl)CC2=Nc3ccccc3NC(c3ccc(Cl)cc3)C12` (configuration not stated), the IC90 is greater than 7.28 µM. For the setting “HEPG2TOX_HILL_SLOPE 0.118, HEPG2TOX_R_SQUARED 0.0386, read-out: LUCIFERASE INFECTION ASSAY - IC50”, the IC50 is greater than 7.28 µM.

Turning to `FC(F)(F)c1cccc(-c2cnc3sc(NCCc4ccncc4)nn23)c1`, the 90% effect concentration (IC90) was greater than 8.47 µM. Further, the IC50 under setting [1] is greater than 8.47 µM.

Consider `N#Cc1ccc(/C=N/n2c(-c3ccc(F)cc3)cs/c2=N\c2cccnc2)cc1`, for which the IC90 is greater than 10 µM. For the same molecule, the IC50 (FFLUC_HILL_SLOPE 41.3, FFLUC_R_SQUARED 0.462, HEPG2TOX_HILL_SLOPE 8.97, HEPG2TOX_R_SQUARED 0.901, PBLUC_HILL_SLOPE 3.58, PBLUC_R_SQUARED 0.653, read-out: LUCIFERASE INFECTION ASSAY - IC50) stood at 5.78 µM.

As for `O=C(Nc1nc(-c2ccc(Cl)cc2Cl)cs1)C1CCN(c2ccc(Cl)nn2)CC1`, the IC90 was greater than 10 µM. In addition, under setting [1], the half-maximal inhibitory concentration (IC50) is greater than 10 µM.

With `C=C1N(C)c2ccc(NC(=O)c3ccccc3)cc2C1(C)C`, the IC90 came out at 3.46 µM. Where the note is “FFLUC_HILL_SLOPE 13, FFLUC_R_SQUARED 0.522, HEPG2TOX_HILL_SLOPE 2.51, HEPG2TOX_R_SQUARED 0.97, PBLUC_HILL_SLOPE 14.6, PBLUC_R_SQUARED 0.431, read-out: LUCIFERASE INFECTION ASSAY - IC50”, the concentration for half-maximal inhibition (IC50) is 2.98 µM.

On to `CC1C(OC(=O)c2ccc(CS(C)(=O)=O)cc2)CC2CC1C2(C)C` (configuration not stated), for which the IC90 was greater than 10 µM. For the same molecule, the IC50 under setting [1] is greater than 10 µM.

Consider `O=C(Nc1nc2ccccn2c1C(=O)NC1CCCC1)c1ccc(Cl)cc1`, for which the IC90 stood at 1.21 µM. For the same molecule, the IC50 (HEPG2TOX_HILL_SLOPE 0.927, HEPG2TOX_R_SQUARED 0.795, PBLUC_HILL_SLOPE 2.2, PBLUC_R_SQUARED 0.668, read-out: LUCIFERASE INFECTION ASSAY - IC50) stood at 0.447 µM.

As for `N#C/C(=C\Nc1cc(C(F)(F)F)cc(C(F)(F)F)c1)S(=O)(=O)c1ccccc1Cl`, the IC90 was greater than 7.26 µM. For the same molecule, the IC50 (FFLUC_HILL_SLOPE 5.48, FFLUC_R_SQUARED 0.621, HEPG2TOX_HILL_SLOPE 2.18, HEPG2TOX_R_SQUARED 0.937, read-out: LUCIFERASE INFECTION ASSAY - IC50) was greater than 7.26 µM.

For the molecule `CC(Sc1nc2ncccn2n1)C(=O)N1c2ccccc2CC1C` (configuration not stated), the IC90 was greater than 10 µM. For the setting “FFLUC_HILL_SLOPE 10.4, FFLUC_R_SQUARED 0.228, read-out: LUCIFERASE INFECTION ASSAY - IC50”, the IC50 was greater than 10 µM.

Consider `CCC(C)NC(=O)c1c(NC(=O)c2ccc(OC)cc2)nc2ccc(C)cn12` (configuration not stated), for which the concentration for an effect of 90% (IC90) is greater than 8.67 µM. Besides, the half-inhibitory concentration (IC50) (HEPG2TOX_HILL_SLOPE 1.94, HEPG2TOX_R_SQUARED 0.651, PBLUC_HILL_SLOPE 14.9, PBLUC_R_SQUARED 0.0352, read-out: LUCIFERASE INFECTION ASSAY - IC50) is 7.7 µM.

Take `COc1ccc(CC2(Cc3ccc(OC)c(F)c3)C(=O)N(c3ccccc3C)C(=O)c3ccccc32)cc1F`: the IC90 is greater than 10 µM. Also, the IC50 (FFLUC_HILL_SLOPE 0.212, FFLUC_R_SQUARED 0.0258, read-out: LUCIFERASE INFECTION ASSAY - IC50) is greater than 10 µM.

For the molecule `O=C(NC1CC1)N1CCN(S(=O)(=O)c2ccc3c(c2)OCCCO3)CC1`, the IC90 was greater than 10 µM. For the same molecule, the IC50 under setting [1] is greater than 10 µM.

The values above are taken from ChEMBL document CHEMBL4483862, “Open-source discovery of chemical leads for next-generation chemoprotective antimalarials” (2018).
